Experimental data from US10144715B2, “Piperazine derivatives as liver X receptor modulators” (priority 2014, dated 2018).
Where two headings read alike, the source gives them in different places.

Legend:
LXR β LBD protein [1] = target: T1, LXR β LBD protein (Homo sapiens (Human), UniProt P55055); experiment: biochemical; format: biochemical; details: for EC50: read-out: FRET LXRβ EC50
Target sequence in this assay (P55055 222-460): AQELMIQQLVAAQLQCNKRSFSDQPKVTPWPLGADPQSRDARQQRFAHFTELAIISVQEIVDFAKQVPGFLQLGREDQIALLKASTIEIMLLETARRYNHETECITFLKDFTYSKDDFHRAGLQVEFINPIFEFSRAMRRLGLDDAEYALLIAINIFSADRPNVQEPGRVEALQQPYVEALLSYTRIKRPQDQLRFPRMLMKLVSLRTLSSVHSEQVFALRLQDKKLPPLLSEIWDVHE

LXR β LBD protein [2] = target: T1, LXR β LBD protein; experiment: biochemical; format: binding
Target sequence in this assay (P55055 222-460 limits assumed): as the sequence (P55055 222-460) above

[3] = target: T2, Gal4 DNA binding domain fused to the LBD of LXRβ in HEK293 cells (Homo sapiens (Human), UniProt P55055); experiment: cell-based; format: cell-based
[4] = target: T3, Gal4 DNA binding domain fused to the LBD of LXRα in HEK293 cells (Homo sapiens (Human), UniProt Q13133); experiment: LXR luciferase transcriptional reporter gene assay, agonist mode, LXRα; format: cell-based; details: for EC50: read-out: Cell LXRα EC50
LXR α LBD protein [5] = target: T4, LXR α LBD protein (Homo sapiens (Human), UniProt Q13133); experiment: Human LXRα coactivator recruitment FRET assay, agonist mode; format: biochemical; details: agonist mode
Summary of the method: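 Time-resolved FRET (delay 100 µs, window 200 µs) after 2 h rt incubation of compound with 10 nM (2×) GST-tagged LXRα or LXRβ LBD plus 200 nM fluorescein-SRC2-3 and 20 nM Tb-anti-GST (4×). Percent control vs concentration fit to four-parameter model; EC50 at inflection.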

[6] = target: T3, Gal4 DNA binding domain fused to the LBD of LXRα in HEK293 cells; experiment: LXR luciferase transcriptional reporter gene assay, antagonist mode (200 nM T0901317), LXRα; format: cell-based; details: for IC50: read-out: Cell LXRα IC50
[7] = target: T2, Gal4 DNA binding domain fused to the LBD of LXRβ in HEK293 cells; experiment: cell-based
LXR α LBD protein [8] = target: T4, LXR α LBD protein; experiment: LXR α radioligand binding assay (SPA, competition with [3H]TO901317); details: read-out: LXRα Binding Ki
[9] = antagonist mode, 200 nM T0901317, HEK293 reporter gene assay
[10] = antagonist mode, 200 nM T0901317, HEK293 reporter gene assay, read-out: Cell LXRβ IC50
[11] = agonist mode, read-out: Cell LXRβ EC50

T3 sequence (Q13133 209-447): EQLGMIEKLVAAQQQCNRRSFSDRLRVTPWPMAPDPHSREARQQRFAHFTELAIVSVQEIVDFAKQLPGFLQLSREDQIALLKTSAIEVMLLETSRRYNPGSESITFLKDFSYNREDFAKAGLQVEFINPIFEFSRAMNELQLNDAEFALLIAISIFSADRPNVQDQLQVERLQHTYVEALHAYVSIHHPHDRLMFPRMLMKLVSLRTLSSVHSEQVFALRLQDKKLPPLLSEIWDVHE
T4 sequence (Q13133 209-447): as above
T2 sequence (P55055 222-460 limits assumed): as the sequence (P55055 222-460) above

SMILES	FRET LXRβ efficacy (LXR β LBD protein [1]; agonist mode)	Ki (LXR β LBD protein [2]; read-out: LXRβ Binding Ki) [nM]	Cell LXRβ efficacy [3, 9]	Cell LXRα efficacy [4]	EC50 [4] [nM]	EC50 (LXR α LBD protein [5]) [nM]	FRET LXRα efficacy (LXR α LBD protein [5]) [%]	Cell LXRα efficacy [6]	IC50 [6] [nM]	Cell LXRβ efficacy ([7]; agonist mode)	EC50 (LXR β LBD protein [1]) [nM]	IC50 [3] [nM]	EC50 [7] [nM]	EC50 ([4]; agonist mode) [nM]	IC50 [6, 9] [nM]	further results
CS(=O)(=O)c1cc(N2CCN(C[C@H]3CC[C@@H](C(F)(F)F)CC3)[C@@H](c3ccccc3)C2)ccc1C(N)=O (single isomer, unassigned) [17-39]	61%	107	135%	1648 (67) %	1650	267	55	9842 (125) %	9840	26%	–	–	–	–	–	EC50 (LXR β LBD protein [1]; agonist mode): 63 nM; IC50 [3, 10]: 2660 nM; EC50 [7, 11]: 630 nM
Cc1ccc(CN2CCN(c3cccc(S(C)(=O)=O)c3)C[C@@H]2c2ccccc2)cc1 (single isomer, unassigned) [46-6]	–	63	–	–	> 20000	> 50000	–	957 (105) %	957	–	> 50000	148	> 20000	–	–	Cell LXRβ efficacy [3]: 148 (106) %; Ki (LXR α LBD protein [8]): 519 nM
C[C@]1(c2ccccc2)CN(c2cccc(S(C)(=O)=O)c2)CCN1Cc1ccc(C(F)(F)F)cc1 (single isomer, unassigned) [46-21]	–	–	537 (75) %	2026 (20) %	–	3000	24	–	–	541 (12) %	> 50000	537	541	2030	> 10000	Ki (LXR β LBD protein [2]): 85 nM
CS(=O)(=O)c1cccc(N2CCN(Cc3ccc(C(F)(F)F)c(F)c3)[C@@H](c3ccccc3)C2)c1 (single isomer, unassigned) [46-26]	411 (73) %	58	6798 (54) %	1479 (62) %	–	2860	59	7585 (36) %	–	676 (62) %	411	6800	676	1480	7580	–
C[C@]1(c2ccccc2)CN(c2cccc(S(C)(=O)=O)c2)CCN1Cc1ccc(C(F)(F)F)c(Cl)c1 (single isomer, unassigned) [46-34]	–	32	688 (70) %	2082 (24) %	–	862	40	7451 (87) %	–	587 (10) %	257	688	587	2080	7450	–
CS(=O)(=O)c1cccc(N2CCN(C[C@H]3CC[C@@H](C(F)(F)F)CC3)[C@@H](c3ccccc3)C2)c1 (single isomer, unassigned) [48-31]	37%	5	96%	254 (61) %	254	401	56	6705 (128) %	6700	35%	–	–	–	–	–	EC50 (LXR β LBD protein [1]; agonist mode): 22 nM; IC50 [3, 10]: 436 nM; EC50 [7, 11]: 95 nM; Ki (LXR α LBD protein [8]): 42 nM
CS(=O)(=O)c1cccc(N2CCN(Cc3ccc(C(F)(F)F)cc3)[C@@H](c3ccc(F)cc3)C2)c1 [46-24, (S)-2-(4-fluorophenyl)-4-(3-(methylsulfonyl)phenyl)-1-(4-(trifluoromethyl)benzyl)piperazine]	347 (45) %	359	5823 (95) %	2711 (31) %	–	2700	39	3139 (51) %	–	636 (27) %	347	5820	636	2710	3140	–
